Laboratory results from patent US20260125356A1, “TREATMENT OF LEISHMANIASIS” (THE UNIVERSITY OF DURHAM, priority 2022, published 2026).
≈ marks a conversion by molar mass, not a printed value. Like-named read-outs stand apart in the source and are kept apart here.

Legend:
T. cruzi epimastigotes = assay: T. cruzi epimastigote dose response assay; type: cell-based; settings: Trypanosoma cruzi, read-out: EC50 (T. cruzi)/μM
[1] = system: L. amazonensis promastigotes; assay: L. amazonensis promastigote dose response assay (alamarBlue/resazurin); type: cell-based; settings: Leishmania amazonensis, 48 h, 44 hrs + 4 hrs alamarBlue/resazurin, 26° C., read-out: EC50 (L. amaz)/μM
Kinetic solubility = settings: kinetic from dmso stock
From the text: All chemicals and solvents were sourced from commercial suppliers. Buffers were made up using purified water from a MilliQ® water purification system. Biorelevant buffers (FESSIF, FASSIF and FASSGF) were purchased from Biorelevant and made up according to manufacturer's instructions. 15% FBS (heat inactivated, South American origin, ThermoFisher scientific) in PBS (Fisher Scientific) was filter sterilised (0.22 μm Fisherbrand™ Sterile PES Syringe Filter, Fisher Scientific) before use. Sodium taurocholate was purchased from Merck.
λmax was determined for each compound from the UV-Vis absorption spectrum of a 200 LIM compound solution in buffer of interest using a Varian Cary® 100 UV-Vis Spectrophotometer. A calibration curve of λmax VS concentration was obtained by serial dilution of compound from 200 μM in the buffer of interest, correcting for background buffer absorption. For each sample, a DMSO solution of compound was incubated in buffer of interest (<5% DMSO) for 2 hrs at RT. The solution was filtered (0.22 μm Fisherbrand™ Sterile PES Syringe Filter, Fisher Scientific) or centrifuged (14,500 rpm, 10 min) to remove undissolved debris and the supernatant was removed and diluted as required. The corrected UV absorption of the supernatant at Amax Was measured using a Varian Cary® 100 UV-Vis Spectrophotometer and compared to the calibration curve to determine compound solubility.

L. major promastigotes = assay: L. major promastigote dose response assay (alamarBlue/resazurin); type: cell-based; settings: Leishmania major, 48 h, 44 hrs + 4 hrs alamarBlue/resazurin, 26° C.
Description: Using a standard alamarBlue™ assay, activity and selectivity were assessed using L. major promastigotes and HepG2 cells, respectively.
All parasite and human cell cultures were grown and manipulated following biosafety level 2 instructions under sterile conditions. L. major FV1, L. amazonensis (MHOM/Br/75/JOSEFA), L. donovani BOB (derived from MHOM/SD/62/1S-CL2D), T. brucei (90-13, 427 strain) and T. cruzi (Dm28c) were used throughout.
All steps were carried out under sterile conditions. Frozen stocks of the relevant Leishmania promastigote species were thawed rapidly and added to Schneider's media. Promastigotes were grown at 26° C. in Nunc EasYFlask 25 cm^2 Nunclon Delta Surface (ThermoScientific) and frozen stocks were prepared on low passage cultures (p2-4) by pelleting the cells by centrifugation and resuspending in Schneider's media with 10% DMSO. The cultures were aliquoted into cryovials (Starlab) and cooled slowly to −150° C. for long term storage.
All steps were carried out under sterile conditions. […] Cycloheximide or amphotericin B were used as positive controls and 2% DMSO was used as a negative control. alamarBlue® (ThermoFisher scientific) or resazurin solution was added to each well and incubated for a further 4 hrs at 26° C. Cell-viability was determined using a BioTek™ FLx800 microplate reader with Gen5® 1.08 data analysis software (BioTek) by monitoring fluorescence emission (λex 560/λem 590 nm). Dose response curves were fitted using sigmoidal regression analysis (GraphPad Prism 8 software) and used to calculate EC50 values.

[2] = system: L. donovani promastigotes; assay: L. donovani promastigote dose response assay (resazurin); type: cell-based; settings: Leishmania donovani, read-out: EC50 (L. don)/μM
[3] = system: T. brucei bloodstream trypomastigotes; assay: T. brucei bloodstream trypomastigote dose response assay; type: cell-based; settings: Trypanosoma brucei, read-out: EC50 (T. brucei)/μM
[4] = system: wild-type E. coli (BW25113); assay: Antibacterial MIC/growth assay, wild-type E. coli; type: cell-based; settings: 7.8 to 500 μM, 16 hours at 37° C.
Description: (§1) DMSO was used as a solvent control at a maximum final concentration of 10% (a greater percentage than would be achieved using the compounds at the concentrations in question). Plates were incubated at 37° C. with shaking for 16 hours before measuring absorbance at 600 nm. These values were then used to calculate percentage growth at each dilution of compound in comparison to growth in the absence of compound. The following day, the contents of each well were resuspended using a multichannel pipette, and 5 μl from each well was then applied to LB agar plates. These were incubated at 30° C. in a stationary incubator for 16 hours before imaging.

visceral leishmaniasis = assay: In vivo efficacy against experimental visceral leishmaniasis; settings: single dose 10 mg/kg, BALB/c mice
From the text: FIG. 9 evaluation of efficacy against visceral leishmaniasis in BALB/c mice in (A) the liver and (B) the spleen through Leishman donovani units (LDU) (n=4);
FIG. 10 evaluation of efficacy against visceral leishmaniasis in BALB/c mice in bone marrow (n=4);
FIG. 11 evaluation of efficacy against visceral leishmaniasis in BALB/c mice in (A) the liver and (B) the spleen through Limiting Dilution Assay (LDA) (n=4);
Mice were infected with 2×10^7 promastigotes and kept for 2 months. After 2 months mice were treated with a single dose of phosphate-buffered saline (PBS), an empty liposome formulation (E.Lip), 10 mg/kg of body weight of Drug 3R, 10 mg/kg of body weight of compound 53 (identified in the Figures as drug 10), a liposome composition comprising 10 mg/kg of body weight of Drug 3R (Lip Drug 3R) or a liposome composition comprising 10 mg/kg of body weight of compound 53 (Lip Drug 10). […] The mice were then kept for one month and then sacrificed. Infection in liver and spleen was determined through LDU and LDA (FIGS. 9 and 11), infection in bone marrow was determined by counting amastigotes/1000 cells (FIG. 10).
Liposomal compositions were prepared by incorporation of an active compound into the lipid bilayer of SA-bearing choline liposome (lipid ratio, 7:2). […]

ΔrfaC mutant E. coli = assay: Antibacterial MIC/growth assay, ΔrfaC mutant E. coli; type: cell-based; settings: 7.8 to 500 μM, 16 hours at 37° C.
Description: as §1

S. aureus (FDA209P) = assay: Antibacterial MIC/growth assay, S. aureus; type: cell-based; settings: 16 hours at 37° C., absorbance 600 nm
Description: as §1

[5] = system: L. amazonensis intracellular amastigotes; assay: Killing of intracellular amastigotes in infected peritoneal macrophages; type: cell-based; settings: Leishmania amazonensis, Peritoneal macrophage, treated 48 h, read-out: EC50 (amastigote)
Description: Peritoneal macrophages were plated at 2×10^5/well in 24 well-plate onto circular glass coverslips with medium RPMI+10% HIFCS. After 24 h, macrophages were infected with L. amazonensis (1:10) and cultured at 37″C for 4 h and washed to remove non internalized amastigotes. At 24 h post infection, cells were treated with serial dilutions of compound 53 or Pentostam for 48 h at 37° C. in medium RPMI+5% HIFCS. Afterwards, cells were stained with Rapid Panoptic and the number of intracellular amastigotes in 100 macrophages was counted. EC50 values were calculated by non-linear regression. Means±SD (n=2);
The ability of compound 53 to kill intracellular amastigotes for cells infected with L. amazonensis was assessed and the cytotoxicity of the compound was investigated. The results are shown in FIGS. 6 to 8 and Table 8 below.

[6] = Cytotoxicity against macrophages (resazurin); type: cell-based; settings: mouse, bone marrow-derived macrophages (BMDM), read-out: CC50 (macrophage)
Description: Mouse bone marrow-derived macrophages (BMDM) were plated in 96 well-plate at 1×10^5/well with medium RPMI+10% HIFCS. After 24 h, compound 53 and Pentostam were added at the indicated concentrations, and cells cultured for further 48 h with medium RPMI+5% HIFCS. […] Pentostam CC50 was from curve regression extrapolation. Means±SD (n=5);
The selectivity index (SI) was calculated by dividing the half maximal cytotoxic concentration (CC50) by the half maximal effective concentration (EC50). CC50 was extrapolated for pentostam.

L. amazonensis-GFP = assay: In vivo intralesional treatment of L. amazonensis-GFP (mouse ear); settings: 0.4 mg in 10 μL PBS, once a week for five weeks
Description: FIG. 12 evaluation of the parasitic load of intralesional treatment of L. amazonensis-GFP (mouse ear) after treatment with PBS, glucantime, compound 53 (VJL), clemastine fumarate (CF) or clemastine fumarate in a polymeric nanoparticle (NP-CF);
Mice were infected with L. amazonensis and were then treated intralesionally (IL) with five doses of 10 μL PBS only (control) or 10 μL of PBS containing 0.4 mg of glucantime, compound 53 (VJL), clemastine fumarate (CF) or clemastine fumarate in a polymeric nanoparticle (NP-CF). The mice were treated once a week for five weeks.

[7] = FASSGF, fassgf or other biorelevant

| SMILES | EC50 (T. cruzi epimastigotes; epimastigotes, 72 hours at 28° C., counted) | EC50 [1] | solubility at 2 h (Kinetic solubility; [7]) | solubility at 2 h (Kinetic solubility; FASSIF) | solubility at 2 h (Kinetic solubility; FESSIF) | solubility at 2 h (Kinetic solubility; PBS, aqueous buffer) | EC50 (L. major promastigotes) | EC50 ([2]; promastigotes, 72 hrs at 26° C., resazurin) | EC50 ([3]; bloodstream trypomastigotes, 48 hrs, CellTiter Blue) | inhibition of growth of wild-type E. coli [4] | antileishmanial effect in vivo (liver, spleen, bone marrow infection) (visceral leishmaniasis; compound alone) | antileishmanial effect in vivo (liver, spleen, bone marrow infection), liposomal formulation (visceral leishmaniasis; delivered (iv) in a liposomal formulation) | inhibition of growth of ΔrfaC mutant E. coli (ΔrfaC mutant E. coli) | inhibition of growth of S. aureus (S. aureus (FDA209P)) | EC50 (T. cruzi epimastigotes; 72 h) | EC50 [5] | CC50 at 48 h [6] | parasitic load after intralesional treatment (L. amazonensis-GFP) | EC50 ([2]; 72 h) | EC50 ([3]; 48 h) |
| --- | --- | --- | --- | --- | --- | --- | --- | --- | --- | --- | --- | --- | --- | --- | --- | --- | --- | --- | --- | --- |
| CNC(=O)c1ccc(OCCN2CCOCC2)cc1NC(=O)c1ccc([N+](=O)[O-])s1 [Compound 52, N-[2-(methylcarbamoyl)-5-[2″-(morpholin-4″-yl)ethoxy]phenyl]-5′-nitrothiophene-2′-carboxamide] | 13 ± 1 µM | 0.27 µM | > 8000 µM | 148 µM (≈ 64.3 µg/mL) | 1870 µM (≈ 812 µg/mL) | 19.3 µM (≈ 8.39 µg/mL) | 0.44 µM | 0.134 µM | 0.78 ± 0.4 µM |  |  |  |  |  |  |  |  |  |  |  |
| CNC(=O)c1ccc(OCCCN2CCOCC2)cc1NC(=O)c1ccc([N+](=O)[O-])s1 [Compound 53, N-[2-(methylcarbamoyl)-5-[3″-(morpholin-4′″-yl)propoxy]phenyl]-5′-nitrothiophene-2′-carboxamide] |  |  | > 8000 µM | 359 µM (≈ 161 µg/mL) | 4700 µM (≈ 2110 µg/mL) | 29 µM (≈ 13 µg/mL) |  |  |  | little effect | reasonable antileishmanial effect | very effective clearance | some reasonable activity | effective at inhibiting the bacteria at low concentrations | 3.8 ± 0.5 µM | 0.6 ± 0.2 µg/mL (≈ 1.34 µM) | 16 ± 1 µg/mL (≈ 35.7 µM) | effective treatment | 0.044 µM | 0.29 ± 0.1 µM |
